Experimental data as given in US20060106005A1, “Funtionalised metallocenes as anticancer drugs” (priority 2003, published 2006).
Like-named read-outs stand apart in the source and are kept apart here.

How the values were obtained:
[1] = system: A2780; assay: Sensitivity of cell lines to Cisplatin and Ti compounds (A2780); type: cell-based; conditions: for DIFFERENTIAL: IC50 of 2 relative to Cisplatin; for relative sensitivity of cell lines: A2780, relative to LoVo
[2] = system: certain cancer cell lines; conditions: compared to Cp2TiCl2
[3] = system: A2780-cis; assay: Anti-proliferative effect on cisplatin-resistant A2780-cis; type: cell-based; conditions: for DIFFERENTIAL: IC50 of 2 relative to Cisplatin; for relative sensitivity of A2780 and A2780cis cell lines: relative to A2780 144 hr; for relative sensitivity of cell lines: relative to LoVo
Source text: In order to determine whether these types of complexes overcome platinum resistance in vitro, the anti-proliferative effects of 2 on cisplatin-resistant […] were examined (see Table 3).

[4] = system: MCF-7; assay: Sensitivity of cell lines to Cisplatin and Ti compounds (MCF-7); type: cell-based; conditions: for relative sensitivity of cell lines: MCF-7, relative to LoVo
[5] = system: LS 174T; assay: Sensitivity of cell lines to Cisplatin and Ti compounds (LS 174T); type: cell-based; conditions: for relative sensitivity of cell lines: LS-174T, relative to LoVo
[6] = system: LoVo; assay: Sensitivity of cell lines to Cisplatin and Ti compounds (LoVo); type: cell-based; conditions: for relative sensitivity of cell lines: LoVo (reference line = 1)
[7] = system: LX1; conditions: LX1, histologically unclassified lung tumour; cited from earlier work
[8] = system: xenografted tumours of the colon, head, breast, rectum, lung and stomach; conditions: in vivo; cited from earlier work
[9] = A2780 (24 hour), read-out: IC50
[10] = A2780, exposure time 24 hr, relative to A2780 144 hr
[11] = A2780, exposure time 144 hr (reference = 1)
[12] = A2780-cis (24 hour), read-out: IC50

Molecule	IC50 [1, 9] [µM]	relative sensitivity of A2780 and A2780cis cell lines [1, 10]	relative sensitivity of A2780 and A2780cis cell lines [1, 11]	relative sensitivity of cell lines [1]	IC50 ([1]; A2780, read-out: IC50) [µM]	IC50 [3, 12] [µM]	IC50 ([3]; A2780-cis, read-out: IC50) [µM]	relative sensitivity of A2780 and A2780cis cell lines ([3]; A2780cis, exposure time 24 hr)	relative sensitivity of A2780 and A2780cis cell lines ([3]; A2780cis, exposure time 144 hr)	relative sensitivity of cell lines ([3]; A2780cis)	relative sensitivity of cell lines [4]	IC50 ([5]; LS 174T) [µM]	relative sensitivity of cell lines [5]	IC50 ([6]; LoVo) [µM]	relative sensitivity of cell lines [6]	anti-tumour activity against LX1 [7]	other results
[Cp(CH2)2NH(CH2)5]2TiCl2.2HCl [compound 2]	168	5.42	1	0.5	31	154	28	4.97	0.90	0.45	1	36	0.58	62	1	–	DIFFERENTIAL ([1]; A2780 (24 hour)): 168 µM; IC50 ([1]; A2780, 7 days, read-out: IC50 (7 days)): 99.1 µM; DIFFERENTIAL ([1]; A2780): 37.8 µM; potency relative to Cp2TiCl2 (times more potent) [2]: around 10 times; DIFFERENTIAL ([3]; A2780-cis (24 hour)): 28.5 µM; DIFFERENTIAL ([3]; A2780-cis): 13.3 µM; IC50 ([3]; A2780cis, 7 days, read-out: IC50 (7 days)): 4.3 µM; IC50 ([4]; MCF-7): 62 µM; DIFFERENTIAL ([4]; MCF-7, IC50 of 2 relative to Cisplatin): 6.9 µM; DIFFERENTIAL ([5]; LS 174T, IC50 of 2 relative to Cisplatin): 72 µM; DIFFERENTIAL ([6]; LoVo, IC50 of 2 relative to Cisplatin): 167.6 µM
N.N.[Cl][Pt][Cl] [Cisplatin, cisplatin, reference compound]	1	1.22	1	2.2	0.82	5.4	2.1	6.59	2.56	5.7	24.3	0.5	1.35	0.37	1	–	resistance relative to 2 (times more resistant) ([3]; cisplatin-resistant A2780, after 144 hours): 3 times
[Cl-].[Cl-].[V+4].c1cc[cH-]c1.c1cc[cH-]c1 [Cp2VCl2, vanadocene(bis-cyclopentadienyl vanadium)dichloride]	–	–	–	–	–	–	–	–	–	–	–	–	–	–	–	significant activity	–
C1=C[CH]([Ti+2][CH]2C=CC=C2)C=C1.[Cl-].[Cl-].[Ti+2].c1cc[cH-]c1.c1cc[cH-]c1 [Cp2TiCl2, titanocene (bis-cyclopentadienyl titanium)dichloride]	–	–	–	–	–	–	–	–	–	–	–	–	–	–	–	no significant anti-tumour activity	sensitivity of xenografted tumours [8]: significantly sensitive
